From US6358947B1 (American Home Products Corporation, priority 1999, dated 2002)
Read-outs that look alike come from different tables or passages of the source.

How the values were obtained:
human PR [1] = molecular target: T1, human PR (Homo sapiens, UniProt P06401); experiment: Cotransfection assay, PR agonist, CV-1 cells; format: cell-based; details: for PR Agonist CV-1 Cells Efficacy: percent maximal response relative to reference agonist
T1 sequence (P06401 1-933): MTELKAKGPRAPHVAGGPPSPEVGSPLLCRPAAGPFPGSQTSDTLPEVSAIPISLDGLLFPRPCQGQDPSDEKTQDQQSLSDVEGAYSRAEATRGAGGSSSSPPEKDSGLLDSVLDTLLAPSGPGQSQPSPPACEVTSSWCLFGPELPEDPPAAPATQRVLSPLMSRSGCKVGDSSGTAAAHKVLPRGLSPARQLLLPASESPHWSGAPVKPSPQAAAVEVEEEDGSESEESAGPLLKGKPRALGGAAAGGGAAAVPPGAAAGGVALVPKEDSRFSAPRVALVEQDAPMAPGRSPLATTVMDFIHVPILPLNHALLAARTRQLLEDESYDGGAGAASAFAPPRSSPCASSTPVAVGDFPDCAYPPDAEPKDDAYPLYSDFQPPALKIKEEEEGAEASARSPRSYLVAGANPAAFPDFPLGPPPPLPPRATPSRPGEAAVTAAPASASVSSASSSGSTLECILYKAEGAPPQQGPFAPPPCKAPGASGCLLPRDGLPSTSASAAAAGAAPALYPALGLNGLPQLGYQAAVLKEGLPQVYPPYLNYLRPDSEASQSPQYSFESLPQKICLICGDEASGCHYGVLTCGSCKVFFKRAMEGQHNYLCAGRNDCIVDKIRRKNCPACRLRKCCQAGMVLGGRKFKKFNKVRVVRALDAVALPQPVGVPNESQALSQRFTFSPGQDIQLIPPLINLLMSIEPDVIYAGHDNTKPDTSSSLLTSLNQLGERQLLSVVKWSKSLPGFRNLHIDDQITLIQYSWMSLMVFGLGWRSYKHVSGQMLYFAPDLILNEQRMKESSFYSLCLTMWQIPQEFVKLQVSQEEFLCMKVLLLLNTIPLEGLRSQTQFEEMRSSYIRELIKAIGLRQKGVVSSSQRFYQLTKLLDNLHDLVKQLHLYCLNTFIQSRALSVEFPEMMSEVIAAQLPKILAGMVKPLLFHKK

human PR [2] = molecular target: T1, human PR; experiment: Cotransfection assay, PR antagonist, CV-1 cells; format: cell-based; details: for IC50: Table 1, read-out: PR Antagonist CV-1 Cells Potency; for PR Antagonist CV-1 Cells Efficacy: percent maximal response relative to reference antagonist
hPR-A = molecular target: T2, hPR-A (Homo sapiens, UniProt P06401); experiment: PR receptor binding assay
T2 sequence (P06401 1-769 isoform P06401-2): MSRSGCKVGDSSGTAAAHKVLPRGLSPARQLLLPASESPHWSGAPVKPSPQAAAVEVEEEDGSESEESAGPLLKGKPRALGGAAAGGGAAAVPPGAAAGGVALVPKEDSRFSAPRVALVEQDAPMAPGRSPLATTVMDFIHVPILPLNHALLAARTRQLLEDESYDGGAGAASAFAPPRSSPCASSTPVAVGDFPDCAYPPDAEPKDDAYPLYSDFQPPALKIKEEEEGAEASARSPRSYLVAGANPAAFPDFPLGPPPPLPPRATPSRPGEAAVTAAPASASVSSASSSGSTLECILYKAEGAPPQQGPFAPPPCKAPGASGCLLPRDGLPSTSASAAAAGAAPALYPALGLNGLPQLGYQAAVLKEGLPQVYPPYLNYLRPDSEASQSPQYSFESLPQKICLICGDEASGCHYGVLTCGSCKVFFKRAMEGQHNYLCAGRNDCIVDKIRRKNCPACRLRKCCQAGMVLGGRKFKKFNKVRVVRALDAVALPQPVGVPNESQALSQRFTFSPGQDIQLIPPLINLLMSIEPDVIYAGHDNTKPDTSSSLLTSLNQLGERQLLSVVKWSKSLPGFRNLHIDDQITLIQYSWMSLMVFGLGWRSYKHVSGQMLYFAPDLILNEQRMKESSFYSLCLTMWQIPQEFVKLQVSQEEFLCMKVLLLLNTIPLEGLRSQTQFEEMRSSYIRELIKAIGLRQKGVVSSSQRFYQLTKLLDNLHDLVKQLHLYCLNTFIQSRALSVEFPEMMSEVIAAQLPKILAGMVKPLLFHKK

hER = molecular target: T3, hER (Homo sapiens, UniProt P03372); experiment: Cotransfection assay, ER agonist; format: cell-based; details: read-out: ER Potency Agon
T3 sequence (P03372 1-595): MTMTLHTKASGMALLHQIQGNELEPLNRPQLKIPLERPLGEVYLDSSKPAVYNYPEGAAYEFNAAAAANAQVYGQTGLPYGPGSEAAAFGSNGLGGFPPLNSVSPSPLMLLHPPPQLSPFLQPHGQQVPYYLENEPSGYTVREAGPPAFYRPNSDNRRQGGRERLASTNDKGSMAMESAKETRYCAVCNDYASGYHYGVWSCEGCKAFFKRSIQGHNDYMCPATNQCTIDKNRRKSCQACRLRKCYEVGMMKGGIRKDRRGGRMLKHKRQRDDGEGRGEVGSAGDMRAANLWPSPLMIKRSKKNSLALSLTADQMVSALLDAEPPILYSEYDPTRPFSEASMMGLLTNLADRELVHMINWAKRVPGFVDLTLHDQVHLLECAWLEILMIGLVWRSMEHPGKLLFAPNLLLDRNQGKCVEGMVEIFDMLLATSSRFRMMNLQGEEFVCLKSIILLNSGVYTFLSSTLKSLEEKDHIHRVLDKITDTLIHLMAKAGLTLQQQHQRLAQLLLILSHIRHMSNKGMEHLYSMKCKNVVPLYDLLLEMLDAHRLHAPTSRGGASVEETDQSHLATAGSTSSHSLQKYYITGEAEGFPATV

[3] = CV-1 cells, Table 1, read-out: PR Agonist CV-1 Cells Potency

Row | SMILES | EC50 (human PR [1]; [3]) [nM] | PR Agonist CV-1 Cells Efficacy (human PR [1]; CV-1 cells) | IC50 (human PR [2]) [nM] | PR Antagonist CV-1 Cells Efficacy (human PR [2]) [%] | Ki (hPR-A) [nM] | EC50 (hER) [µM] | EC50 (human PR [1]; Table 2, read-out: PR Potency Agon) [nM]
1 | CC1(C)OC(=O)Nc2ccc3c(c21)COc1c(F)cccc1-3 [Compound 14, 7-Fluoro-4,4-dimethyl-5H-chromeno[3,4-f]-1,3-benzo[d]oxazin-2-one] | 2500 | 30% | 25 | 95 | 172 | > 10 | 
2 | CC1(C)OC(=O)Nc2ccc3c(c21)COc1c(F)cc(Br)cc1-3 [Compound 20, 9-Bromo-7-fluoro-4,4-dimethyl-5H-chromeno[3,4-f]-1,3-benzo[d]oxazin-2-one] | 500 | 30% | 20 | 80 | 17 | > 10 | 
3 | CC1(C)OC(=O)Nc2ccc3c(c21)COc1c(F)cc(C=O)cc1-3 [Compound 24, 7-fluoro-9-formyl-4,4-dimethyl-5H-chromeno[3,4-f]-1,3-benzo[d]oxazin-2-one] | > 10000 | na (na = not active (i.e. efficacy of <20 and potency of >10,000)) | 98 | 84 | 181 | > 10 | > 10000

Next, values leading:

Row | EC50 (human PR [1]; [3]) [nM] | PR Agonist CV-1 Cells Efficacy (human PR [1]; CV-1 cells) | IC50 (human PR [2]) [nM] | PR Antagonist CV-1 Cells Efficacy (human PR [2]) [%] | Ki (hPR-A) [nM] | EC50 (hER) [µM] | EC50 (human PR [1]; Table 2, read-out: PR Potency Agon) [nM] | SMILES
4 | 623 | 46% | 23 | 87 | 65 | > 10 |  | CC1(C)OC(=O)Nc2ccc3c(c21)COc1c(F)cc(C=NO)cc1-3 [Compound 25, 7-fluoro-9-hydroxyiminomethyl-4,4-dimethyl-5H-chromeno[3,4-f]-1,3-benzo[d]oxazin-2-one]
5 | 1000 | 60% | 16 | 68 | 20 | > 10 |  | CC1(C)OC(=O)Nc2ccc3c(c21)COc1c(F)cc(C#N)cc1-3 [Compound 26, 9-cyano-7-fluoro-4,4-dimethyl-5H-chromeno[3,4-f]-1,3-benzo[d]oxazin-2-one]
